The values that follow come from publication PMC12592139, “Quantitative assessment of the usability of electromechanical human-based modelling and simulation to replace Langendorff isolated rabbit heart experiments in the preclinical setting” (Frontiers in Pharmacology, 2025).

In series [1] the target is T1, hNCX1 (Homo sapiens, UniProt P32418).
T1 construct: expressed in transfected cells; host or cells: CHO cell lines
Put plainly: Cell-based calcium mobilization assay on CHO cell lines expressing NCX1. Particulars: for pIC50: Fluo4-AM. The method, then: Furthermore, in vitro potency for 11 compounds was assessed on the NCX isoforms using a cell-based calcium mobilization assay on CHO cell lines expressing NCX1, NCX2 or NCX3. Measurements of intracellular calcium concentration employed a fluorescent imaging plate reader (Molecular Devices, United States) with the calcium-sensitive dye Fluo4-AM. Detailed methods are described in [Pelat et al. (2021)].
For orientation: Calcium assays in cells follow changes in intracellular calcium, usually with a dye or a luminescent sensor.

In series [2] the target is hERG channel (Homo sapiens, UniProt Q12809). As to the kind of experiment: Automated patch-clamp (QPatch) on hERG channel. Background: The patch-clamp technique gives a direct electrical read-out from membranes.
Chain of hERG channel (Q12809 whole entry): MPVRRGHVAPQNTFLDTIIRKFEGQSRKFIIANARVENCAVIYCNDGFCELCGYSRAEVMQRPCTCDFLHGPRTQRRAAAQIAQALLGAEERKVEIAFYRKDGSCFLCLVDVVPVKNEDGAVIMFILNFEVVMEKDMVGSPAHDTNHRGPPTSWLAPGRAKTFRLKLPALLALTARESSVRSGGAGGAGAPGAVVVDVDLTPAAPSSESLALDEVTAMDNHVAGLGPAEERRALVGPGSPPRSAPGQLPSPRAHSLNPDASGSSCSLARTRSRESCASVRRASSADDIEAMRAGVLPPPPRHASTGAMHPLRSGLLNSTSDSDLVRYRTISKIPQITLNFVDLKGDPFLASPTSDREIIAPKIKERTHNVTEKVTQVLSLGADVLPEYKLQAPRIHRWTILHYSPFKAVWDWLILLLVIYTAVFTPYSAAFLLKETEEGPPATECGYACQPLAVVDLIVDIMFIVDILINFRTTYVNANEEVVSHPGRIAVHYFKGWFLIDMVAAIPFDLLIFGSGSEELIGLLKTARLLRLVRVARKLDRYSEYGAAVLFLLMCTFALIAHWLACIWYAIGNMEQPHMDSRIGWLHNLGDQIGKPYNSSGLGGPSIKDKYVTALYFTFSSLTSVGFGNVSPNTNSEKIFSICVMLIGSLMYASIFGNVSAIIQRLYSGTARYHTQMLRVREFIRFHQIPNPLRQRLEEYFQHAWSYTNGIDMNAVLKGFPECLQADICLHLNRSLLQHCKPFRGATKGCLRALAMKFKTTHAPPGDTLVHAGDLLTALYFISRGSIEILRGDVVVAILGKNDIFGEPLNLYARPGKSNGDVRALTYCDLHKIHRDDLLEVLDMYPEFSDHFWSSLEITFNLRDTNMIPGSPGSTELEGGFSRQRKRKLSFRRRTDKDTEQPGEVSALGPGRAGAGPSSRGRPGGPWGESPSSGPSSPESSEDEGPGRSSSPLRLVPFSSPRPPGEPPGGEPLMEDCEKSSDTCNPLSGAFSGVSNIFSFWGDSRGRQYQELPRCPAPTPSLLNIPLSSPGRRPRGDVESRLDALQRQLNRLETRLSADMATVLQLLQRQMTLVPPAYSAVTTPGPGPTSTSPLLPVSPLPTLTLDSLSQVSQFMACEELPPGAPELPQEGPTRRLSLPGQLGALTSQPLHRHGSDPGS
Method: (§1) The QPatch system (Sophion, Denmark) was used to investigate hERG, hNav1.5 and hKv4.3, and the SyncroPatch system (Nanion, Germany) was employed for hCav1.2. Recordings for all 37 compounds were performed at 21 °C.
(§2) When a Hill coefficient was not available, it was approximated as 1.
The subject of series [3] is L-type calcium current. Set-up: method as in Trovato et al., 2025. Particulars: at EC50; ref Trovato et al., 2025; cited from earlier work.
Series [4] has as its system isolated rabbit heart. Put plainly: Ex vivo rabbit whole-heart Langendorff experiments (QT, left ventricular pressure). Particulars: 0.1µM. The protocol:
Routine experimental measurements used in this study were retrieved from already existing datasets collected and curated by Sanofi, contributing to the 3R principles in animal experimentation: replacement, reduction and refinement. All the procedures described in the present study were performed in agreement with the European regulation (2010/63/EU) and under the approval and control of Sanofi’s ethics committee. […]
Hearts were spontaneously beating. […] The left ventricular pressure was evaluated using a pressure transducer within a saline-filled latex balloon inserted into the ventricular chamber. […] The electrocardiogram was recorded with two flexible electrodes gently pressed on the epicardium. The ECG parameters PQ, QRS, and QT durations were calculated using specific software (HEM-Notocord systems).
After stabilization, pressure was recorded with the vehicle for 15 min and used as a control period. […]
Baseline biomarker measurements were established in control conditions for both ex vivo experiments and in silico simulations, benchmarking compound results at each concentration against these respective controls. Percent variations of means for experiments and simulations were calculated. In the population, these variations were measured against each cell’s control, and the group mean is calculated.

Series [5] deals with late hNav1.5 (Homo sapiens, UniProt Q14524). As to the kind of experiment: Late hNav1.5 inhibition in vitro. The format is cell-based.
Series [6] addresses hNav1.5 (Homo sapiens, UniProt Q14524). Put plainly: Automated patch-clamp (QPatch) on hNav1.5 (peak sodium current).
Method: as §1, §2
The target in series [7] is hCav1.2 (Homo sapiens, UniProt Q13936). As to the kind of experiment: Automated patch-clamp (SyncroPatch) on hCav1.2.
Method: as §1, §2
Series [8] deals with QTc. The settings on record: clinical, administered in isolation; ref El Kadri et al., 2022; Morrisette et al., 2020; cited from earlier work.
Series [9] deals with T2, hKv4.3 (Homo sapiens, UniProt Q9UK17).
T2 construct: expressed in transfected cells
T2 sequence (Q9UK17 1-655): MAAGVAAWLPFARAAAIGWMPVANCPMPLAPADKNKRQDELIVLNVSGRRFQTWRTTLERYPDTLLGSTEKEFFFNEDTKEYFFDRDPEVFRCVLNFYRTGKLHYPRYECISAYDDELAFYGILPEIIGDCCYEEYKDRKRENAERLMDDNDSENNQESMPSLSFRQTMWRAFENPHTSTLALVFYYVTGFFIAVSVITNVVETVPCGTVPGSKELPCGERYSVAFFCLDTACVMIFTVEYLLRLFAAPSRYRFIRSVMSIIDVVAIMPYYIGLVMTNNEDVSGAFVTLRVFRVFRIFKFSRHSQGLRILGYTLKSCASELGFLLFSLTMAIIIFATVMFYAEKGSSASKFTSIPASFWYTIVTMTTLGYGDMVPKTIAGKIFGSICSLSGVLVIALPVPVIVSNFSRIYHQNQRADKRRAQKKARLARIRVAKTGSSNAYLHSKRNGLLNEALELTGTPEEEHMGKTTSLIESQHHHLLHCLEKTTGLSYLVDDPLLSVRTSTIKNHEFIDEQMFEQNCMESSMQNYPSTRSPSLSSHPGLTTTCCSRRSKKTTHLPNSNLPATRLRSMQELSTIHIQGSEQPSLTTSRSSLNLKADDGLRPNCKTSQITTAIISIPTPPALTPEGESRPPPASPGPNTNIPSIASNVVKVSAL
Put plainly: Automated patch-clamp (QPatch) on hKv4.3. The format is cell-based.
From the text: Following the procedure in [Trovato et al. (2022)], we used automated patch-clamp platforms to study four ionic currents relevant to human repolarisation, as outlined by [Zhou et al. (2020)] as the minimum set of ion channels, marked by the CiPA Ion Channel Work Group, for reliable predictions of repolarisation abnormalities. […] The QPatch system (Sophion, Denmark) was used to investigate hERG, hNav1.5 and hKv4.3, and the SyncroPatch system (Nanion, Germany) was employed for hCav1.2. Recordings for all 37 compounds were performed at 21 °C.
as §2

The mark [10] stands for this setting: CHO cells, calcium mobilization.

pIC50: −log10 of the molar value. Read-outs that look alike come from different tables or passages of the source. Bounds are passed on as bounds.

Chain of hNav1.5 (Q14524 whole entry): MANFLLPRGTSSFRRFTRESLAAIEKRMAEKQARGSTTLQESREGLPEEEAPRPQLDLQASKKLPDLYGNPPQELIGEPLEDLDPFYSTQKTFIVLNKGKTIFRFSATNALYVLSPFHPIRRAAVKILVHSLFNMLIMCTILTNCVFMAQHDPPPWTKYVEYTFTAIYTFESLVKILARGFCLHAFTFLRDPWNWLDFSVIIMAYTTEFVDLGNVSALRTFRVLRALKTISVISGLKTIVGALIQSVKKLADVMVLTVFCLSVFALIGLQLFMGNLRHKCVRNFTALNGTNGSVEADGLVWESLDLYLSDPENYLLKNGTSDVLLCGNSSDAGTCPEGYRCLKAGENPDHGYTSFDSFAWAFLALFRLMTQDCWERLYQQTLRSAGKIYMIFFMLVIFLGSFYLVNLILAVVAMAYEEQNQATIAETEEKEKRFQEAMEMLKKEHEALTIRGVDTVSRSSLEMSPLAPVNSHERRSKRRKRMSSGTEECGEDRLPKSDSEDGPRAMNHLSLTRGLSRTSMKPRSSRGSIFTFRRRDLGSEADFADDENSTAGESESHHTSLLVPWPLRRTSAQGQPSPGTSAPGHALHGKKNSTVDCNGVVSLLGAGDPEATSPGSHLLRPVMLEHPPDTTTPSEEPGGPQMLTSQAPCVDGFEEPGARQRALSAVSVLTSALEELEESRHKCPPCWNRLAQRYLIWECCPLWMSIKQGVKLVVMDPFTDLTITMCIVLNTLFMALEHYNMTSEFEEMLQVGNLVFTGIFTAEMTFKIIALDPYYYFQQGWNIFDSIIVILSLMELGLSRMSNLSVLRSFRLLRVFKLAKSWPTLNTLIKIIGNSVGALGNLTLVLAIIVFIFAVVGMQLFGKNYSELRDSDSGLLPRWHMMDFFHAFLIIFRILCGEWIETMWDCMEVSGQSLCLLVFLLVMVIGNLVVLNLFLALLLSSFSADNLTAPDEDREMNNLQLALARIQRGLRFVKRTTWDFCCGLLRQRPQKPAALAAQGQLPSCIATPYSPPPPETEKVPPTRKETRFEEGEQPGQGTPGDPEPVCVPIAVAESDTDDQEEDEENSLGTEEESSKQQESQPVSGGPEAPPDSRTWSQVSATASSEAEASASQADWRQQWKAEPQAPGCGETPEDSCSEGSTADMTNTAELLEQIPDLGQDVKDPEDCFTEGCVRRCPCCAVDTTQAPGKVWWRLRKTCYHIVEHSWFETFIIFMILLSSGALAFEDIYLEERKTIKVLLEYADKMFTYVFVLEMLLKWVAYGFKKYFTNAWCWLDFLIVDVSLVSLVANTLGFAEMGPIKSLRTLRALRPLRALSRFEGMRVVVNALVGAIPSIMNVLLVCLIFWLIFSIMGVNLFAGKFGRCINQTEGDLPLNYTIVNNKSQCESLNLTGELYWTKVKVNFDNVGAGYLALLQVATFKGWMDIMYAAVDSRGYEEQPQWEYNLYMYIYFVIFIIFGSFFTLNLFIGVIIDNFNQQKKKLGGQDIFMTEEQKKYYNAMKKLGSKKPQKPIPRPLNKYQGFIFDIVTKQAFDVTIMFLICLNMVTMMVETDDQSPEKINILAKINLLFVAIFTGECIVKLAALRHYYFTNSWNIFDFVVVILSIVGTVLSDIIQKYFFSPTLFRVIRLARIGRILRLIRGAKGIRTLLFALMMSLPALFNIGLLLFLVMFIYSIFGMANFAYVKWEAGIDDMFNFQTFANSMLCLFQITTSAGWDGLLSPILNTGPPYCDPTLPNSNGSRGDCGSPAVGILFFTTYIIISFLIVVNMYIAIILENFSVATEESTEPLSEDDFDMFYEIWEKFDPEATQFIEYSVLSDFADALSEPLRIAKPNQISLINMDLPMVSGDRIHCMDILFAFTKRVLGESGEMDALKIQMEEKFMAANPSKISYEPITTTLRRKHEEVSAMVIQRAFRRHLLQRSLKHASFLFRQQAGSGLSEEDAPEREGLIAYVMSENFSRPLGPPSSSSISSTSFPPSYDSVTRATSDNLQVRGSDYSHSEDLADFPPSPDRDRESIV

In general, pIC50 refers to the negative decadic logarithm of the IC50, by convention in mol/L. For the compound `CC(CCc1ccc(O)cc1)NCCc1ccc(O)c(O)c1` (centres unmarked) [Dobutamine], in [1], the NCX inhibition entry is “does not inhibit” and the “hNCX1 % block @ 30 µM” value turned out to be 15.00%. In series [2], this compound gave a pIC50 of 4.66. Also, the “increase of L-type calcium current (factor)” value in series [3] was 1.22. In addition, in series [4], the “increase in ventricular pressure” value amounted to 17%.

As to `CCN(CCO)CCCC(C)Nc1ccnc2cc(Cl)ccc12` (centres unmarked) [SA1068, Hydroxychloroquine], in series [1], the “hNCX1 % block @ 30 µM” value is reported as 14%. Besides, the pIC50 in series [1] (setting [10]) was < 4.52; in series [2], 5.15; in [5] (read-out: Late Nav1.5 IC50), < 4.52; in series [6] it was 4.05; in series [7] it was 5.12. For the same compound, the “Late Nav1.5 % block @ 30 µM” value in [5] (30 µM) amounted to 15%. The “average increase in QTc” value in [8] is recorded as 11 ms.

Regarding `[H]/N=C(\N/C(=N/[H])Nc1ccc(Cl)cc1)NC(C)C` [SA1790, Paludrine], in [2], the negative-log IC50 (pIC50) is < 4.52.

Regarding `CN(C)C(=O)C(CCN1CCC(O)(c2ccc(Cl)cc2)CC1)(c1ccccc1)c1ccccc1` [SA2089, Loperamide], the pIC50 was 5.68 in series [6] and 5.41 in series [7].

As for `COC(=O)N1CCN(Cc2cccc(NC(=O)Nc3ccc(C)nc3)c2F)CC1` [SA3064, Omecamtiv], the pIC50 in [2] (read-out: hERG IC50, automated patch-clamp, 21 °C, IC50 not achieved taken at maximum concentration or estimated with Hill coefficient 1) was 3.90.

For `C=C(C)[C@@H]1CCC(C)=C[C@H]1c1c(O)cc(CCCCC)cc1O` [SA5067, Cannabidiol], the “hNCX1 nh (Hill coefficient)” value in series [1] (setting [10]) was “nH 1.7”. Further, the pIC50 in [1] (setting [10]) was 4.72; in [2], 4.66; in series [6], 4.55; in [7], 4.93; in [9], 5.11.

On to `CN1CCN(C2=Nc3cc(Cl)ccc3Nc3ccccc32)CC1` [SA5332, Clozapine], for which the pIC50 in series [6] was 4.64; in [9] (automated patch-clamp, 21 °C, IC50 not achieved taken at maximum concentration or estimated with Hill coefficient 1, read-out: Kv4.3 IC50), 4.21.

For `CCN(CC)CC(=O)Nc1c(C)cccc1C` [SA5350, Lidocaine], the “hNCX1 % block @ 30 µM” value in series [1] is reported as 6.00%.

In the case of `C[C@@H]1OCC2(CCN(c3cnc(Sc4ccnc(N)c4Cl)c(N)n3)CC2)[C@@H]1N` [SA6687, Batoprotafib], in [2], the pIC50 was 5.10.

As for `CN=C(N)NC(=O)Nc1c(C)cccc1C` [SA9977, Lidamidine], the “hNCX1 % block @ 30 µM” value in series [1] is recorded as 17.00%. In series [2] (human), the pIC50 was < 4.52.
